Source: US20230257413A1, “ARTIFICIAL NUCLEIC ACID, METHOD FOR PRODUCING SAME, AND USE THEREOF” (RIKEN GENESIS CO., LTD., priority 2020, published 2023)

How the values were obtained:
[1] = system: single-stranded RNA (5′-r(agcaaaaaacgc)-3′; SEQ ID NO: 7) (a sense strand); assay: Measurement of melting temperatures (Tm) of oligonucleotides, double strand forming capability with single-stranded RNA; assay type: binding; details: antisense 5′-d(gcgnnnnnngct)-3′ (SEQ ID NO: 4); 100 mM NaCl, 10 mM sodium phosphate buffer pH 7.2, 4 μM each strand
[2] = system: single-stranded DNA (5′-d(agcaaaaaacgc)-3′; SEQ ID NO: 6) (a sense strand); assay: Measurement of melting temperatures (Tm) of oligonucleotides, double strand forming capability with single-stranded DNA; assay type: binding; details: antisense 5′-d(gcgnnnnnngct)-3′ (SEQ ID NO: 4); 100 mM NaCl, 10 mM sodium phosphate buffer pH 7.2, 4 μM each strand

Substance	Tm value (target: ssRNA) [1] [°C]	Tm value (target: ssDNA) [2] [°C]
(R)EDM-T: SEQ ID NO: 4, n = formula (6) unit: thymin-1-yl, n 1, R^3 3-(N,N-dimethylamino)propyl, R^4 (R)-ethyl, R^5 H (DNA AGCAAAAAACG; n (R)EDM-T modified units, chemistry not fully specified; the letters are possibly those of the target site)	89	77
DNA-T: 5′-d(gcgnnnnnngct)-3′ (SEQ ID NO: 4), n = formula (7) unit, Base thymin-1-yl, R^a H (natural DNA T) (DNA AGCAAAAAACGC; n natural T, chemistry not fully specified; the letters are possibly those of the target site)	48	52
